Measured values reported in ChEMBL document CHEMBL1201861, “Genomics of Drug Sensitity in Cancer screening data, Wellcome Trust Sanger Institute”.

Legend:
Experiment in all cases: cells
GP5d = format: functional, cell-based, Homo sapiens; conditions: Homo sapiens, GP5d;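 note: growth inhibition of human GP5d cells, read out with a cell viability assay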
Description: SANGER: Inhibition of human GP5d cell growth in a cell viability assay.

SK-MEL-30 = format: functional, cell-based, Homo sapiens; conditions: Homo sapiens, SK-MEL-30;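 note: growth inhibition of SK-MEL-30 cells, determined with a cell viability assay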
Description: SANGER: Inhibition of human SK-MEL-30 cell growth in a cell viability assay.

WM-115 = format: functional, cell-based, Homo sapiens; conditions: Homo sapiens, WM-115
Description: SANGER: Inhibition of human WM-115 cell growth in a cell viability assay.

CAL-39 = format: functional, cell-based, Homo sapiens; conditions: Homo sapiens, CAL-39;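 note: cell viability assay measuring growth inhibition of CAL-39 cells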
Description: SANGER: Inhibition of human CAL-39 cell growth in a cell viability assay.

NCI-H1048 = format: functional, cell-based, Homo sapiens; conditions: Homo sapiens, NCI-H1048;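 note: growth inhibition of human NCI-H1048 cells, read out with a cell viability assay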
Description: SANGER: Inhibition of human NCI-H1048 cell growth in a cell viability assay.

HGC-27 = format: functional, cell-based, Homo sapiens; conditions: Homo sapiens, HGC-27;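 note: growth inhibition of human HGC-27 cells, read out in a cell viability assay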
Description: SANGER: Inhibition of human HGC-27 cell growth in a cell viability assay.

CAL-62 = format: functional, cell-based, Homo sapiens; conditions: Homo sapiens, CAL-62;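 note: growth inhibition of CAL-62 cells, read out with a cell viability assay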
Description: SANGER: Inhibition of human CAL-62 cell growth in a cell viability assay.

LK-2 = format: functional, cell-based, Homo sapiens; conditions: Homo sapiens, LK-2;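 note: growth inhibition of LK-2 cells, read out with a viability assay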
Description: SANGER: Inhibition of human LK-2 cell growth in a cell viability assay.

Ca9-22 = format: functional, cell-based, Homo sapiens; conditions: Homo sapiens, Ca9-22;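 note: growth inhibition of Ca9-22 cells, read out with a cell viability assay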
Description: SANGER: Inhibition of human Ca9-22 cell growth in a cell viability assay.

A673 = format: functional, cell-based, Homo sapiens; conditions: Homo sapiens, A673;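 note: growth inhibition of human A673 cells, read out through a cell viability assay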
Description: SANGER: Inhibition of human A673 cell growth in a cell viability assay.

CAL-51 = format: functional, cell-based, Homo sapiens; conditions: Homo sapiens, CAL-51;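 note: human CAL-51 cell line, growth inhibition read out via a cell viability assay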
Description: SANGER: Inhibition of human CAL-51 cell growth in a cell viability assay.

NCI-H1693 = format: functional, cell-based, Homo sapiens; conditions: Homo sapiens, NCI-H1693;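 note: growth inhibition of the human cell line, read out with a cell viability assay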
Description: SANGER: Inhibition of human NCI-H1693 cell growth in a cell viability assay.

LCLC-103H cell line = format: functional, cell-based, Homo sapiens; conditions: Homo sapiens, LCLC-103H
Description: SANGER: Inhibition of human LCLC-103H cell growth in a cell viability assay.

HEC-1 = format: functional, cell-based, Homo sapiens; conditions: Homo sapiens, HEC-1;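 note: growth inhibition of the cell line, read out with a cell viability assay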
Description: SANGER: Inhibition of human HEC-1 cell growth in a cell viability assay.

MeWo = format: functional, cell-based, Homo sapiens; conditions: Homo sapiens, MeWo;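 note: growth inhibition of MeWo cells, determined by a cell viability readout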
Description: SANGER: Inhibition of human Mewo cell growth in a cell viability assay.

HuP-T3 = format: functional, cell-based, Homo sapiens; conditions: Homo sapiens, HuP-T3;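 note: HuP-T3 cell growth inhibition, read out with a cell viability assay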
Description: SANGER: Inhibition of human HuP-T3 cell growth in a cell viability assay.

NCI-H1623 = format: functional, cell-based, Homo sapiens; conditions: Homo sapiens, NCI-H1623;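 note: cell viability assay used as the read-out for growth inhibition of NCI-H1623 cells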
Description: SANGER: Inhibition of human NCI-H1623 cell growth in a cell viability assay.

MDA-MB-231 = format: functional, cell-based, Homo sapiens; conditions: Homo sapiens, MDA-MB-231
Description: SANGER: Inhibition of human MDA-MB-231 cell growth in a cell viability assay.

DU-145 = format: functional, cell-based, Homo sapiens; conditions: Homo sapiens, DU-145
Description: SANGER: Inhibition of human DU-145 cell growth in a cell viability assay.

NCI-H1793 = format: functional, cell-based, Homo sapiens; conditions: Homo sapiens, NCI-H1793;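 note: cell growth inhibition, read out by a cell viability assay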
Description: SANGER: Inhibition of human NCI-H1793 cell growth in a cell viability assay.

EFM-19 = format: functional, cell-based, Homo sapiens; conditions: Homo sapiens, EFM-19;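 note: growth inhibition of human EFM-19 cells, measured in a cell viability assay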
Description: SANGER: Inhibition of human EFM-19 cell growth in a cell viability assay.

M14 = format: functional, cell-based, Homo sapiens; conditions: Homo sapiens, M14;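 note: growth inhibition of M14 cells, read out with a cell viability assay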
Description: SANGER: Inhibition of human M14 cell growth in a cell viability assay.

SK-HEP1 = format: functional, cell-based, Homo sapiens, SK-HEP-1; conditions: Homo sapiens, SK-HEP1;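 note: cell viability readout used to quantify reduction in proliferation of human SK-HEP-1 cells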
Description: SANGER: Inhibition of human SK-HEP-1 cell growth in a cell viability assay.

SK-MEL-24 = format: functional, cell-based, Homo sapiens; conditions: Homo sapiens, SK-MEL-24;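 note: growth inhibition read out by a cell viability assay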
Description: SANGER: Inhibition of human SK-MEL-24 cell growth in a cell viability assay.

HCC1937 = format: functional, cell-based, Homo sapiens; conditions: Homo sapiens, HCC1937;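 note: growth inhibition measured with a cell viability read-out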
Description: SANGER: Inhibition of human HCC1937 cell growth in a cell viability assay.

KYSE-450 = format: functional, cell-based, Homo sapiens; conditions: Homo sapiens, KYSE-450;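 note: cell growth inhibition measured by a viability assay in human KYSE-450 cells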
Description: SANGER: Inhibition of human KYSE-450 cell growth in a cell viability assay.

MIA PaCa-2 = format: functional, cell-based, Homo sapiens; conditions: Homo sapiens, MIA PaCa-2;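 note: growth inhibition of MIA PaCa-2 cells, read out with a cell viability assay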
Description: SANGER: Inhibition of human MIA-PaCa-2 cell growth in a cell viability assay.

769-P = format: functional, cell-based, Homo sapiens; conditions: Homo sapiens, 769-P
Description: SANGER: Inhibition of human 769-P cell growth in a cell viability assay.

SJRH30 = format: functional, cell-based, Homo sapiens; conditions: Homo sapiens, SJRH30;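 note: growth inhibition of human SJRH30 cells, read out with a cell viability assay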
Description: SANGER: Inhibition of human SJRH30 cell growth in a cell viability assay.

GMS-10 = format: functional, cell-based, Homo sapiens; conditions: Homo sapiens, GMS-10;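 note: growth inhibition of GMS-10 cells, read out as cell viability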
Description: SANGER: Inhibition of human GMS-10 cell growth in a cell viability assay.

MG-63 = format: functional, cell-based, Homo sapiens; conditions: Homo sapiens, MG-63;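 note: growth inhibition of human MG-63 cells, read out with a cell viability assay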
Description: SANGER: Inhibition of human MG-63 cell growth in a cell viability assay.

CWR22R = format: functional, cell-based, Homo sapiens; conditions: Homo sapiens, 22Rv1;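 note: growth inhibition of 22Rv1 cells, read out with a cell viability assay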
Description: SANGER: Inhibition of human 22RV1 cell growth in a cell viability assay.

CAL-27 = format: functional, cell-based, Homo sapiens; conditions: Homo sapiens, CAL-27;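 note: Viability-based readout, IC50 reflecting inhibition of CAL-27 cell growth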
Description: SANGER: Inhibition of human CAL-27 cell growth in a cell viability assay.

PA-1 = format: functional, cell-based, Homo sapiens; conditions: Homo sapiens, PA-1;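 note: IC50 for suppression of PA-1 cell proliferation, determined with a cell viability read-out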
Description: SANGER: Inhibition of human PA-1 cell growth in a cell viability assay.

SW780 = format: functional, cell-based, Homo sapiens; conditions: Homo sapiens, SW780;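 note: growth inhibition of the cells, read out with a cell viability assay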
Description: SANGER: Inhibition of human SW780 cell growth in a cell viability assay.

CHP-212 = format: functional, cell-based, Homo sapiens; conditions: Homo sapiens, CHP-212
Description: SANGER: Inhibition of human CHP-212 cell growth in a cell viability assay.

KYSE-140 = format: functional, cell-based, Homo sapiens; conditions: Homo sapiens, KYSE-140;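 note: cell viability assay measuring growth inhibition in human KYSE-140 cells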
Description: SANGER: Inhibition of human KYSE-140 cell growth in a cell viability assay.

SIMA = format: functional, cell-based, Homo sapiens; conditions: Homo sapiens, SIMA;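 note: growth inhibition of SIMA cells, measured with a cell viability readout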
Description: SANGER: Inhibition of human SIMA cell growth in a cell viability assay.

Measured: IC50

CO[C@H]1C[C@@H]2CC[C@@H](C)[C@@](O)(O2)C(=O)C(=O)N2CCCC[C@H]2C(=O)O[C@H]([C@H](C)C[C@@H]2CC[C@@H](OC(=O)C(C)(CO)CO)[C@H](OC)C2)CC(=O)[C@H](C)/C=C(\C)[C@@H](O)[C@@H](OC)C(=O)[C@H](C)C[C@H](C)/C=C/C=C/C=C/1C [TEMSIROLIMUS]
0.0457 µM: NCI-H1793
0.0966 µM: Ca9-22
0.161 µM: A673
0.117 µM: CAL-62
0.00483 µM: SW780
0.0524 µM: CHP-212
0.0494 µM: MeWo
0.0096 µM: HGC-27
0.0815 µM: EFM-19
0.00147 µM: PA-1
0.0922 µM: NCI-H1693
0.077 µM: SK-MEL-24
0.134 µM: MG-63
0.0401 µM: CAL-39
0.156 µM: KYSE-140
not listed: SIMA
> 0.2 µM: all other assays above

CC(C)c1ccccc1Cc1cc(C(=O)Nc2ccc(S(=O)(=O)c3ccccc3C(C)(C)C)cc2)c(O)c(O)c1O
0.0814 µM: HEC-1
0.186 µM: KYSE-140
2.83 µM: M14
1.64 µM: HCC1937
0.484 µM: MeWo
0.745 µM: NCI-H1793
0.14 µM: HGC-27
0.479 µM: MIA PaCa-2
0.136 µM: CAL-27
0.664 µM: SIMA
1.03 µM: CWR22R
0.41 µM: SK-MEL-24
0.038 µM: SK-MEL-30
1.29 µM: HuP-T3
1.5 µM: LK-2
0.134 µM: PA-1
0.0538 µM: A673
0.112 µM: MG-63
0.782 µM: GP5d
0.137 µM: 769-P | SJRH30
0.175 µM: KYSE-450
0.108 µM: MDA-MB-231
5.8 µM: SW780
0.443 µM: GMS-10
0.00382 µM: Ca9-22
0.214 µM: NCI-H1048
1.51 µM: SK-HEP1
0.595 µM: NCI-H1623
0.308 µM: CAL-62
4.57 µM: CHP-212
0.0521 µM: DU-145
0.341 µM: CAL-39
0.21 µM: LCLC-103H cell line
1.59 µM: EFM-19
1.21 µM: WM-115
1.25 µM: NCI-H1693
0.349 µM: CAL-51

CC1(C)CNc2cc(NC(=O)c3cccnc3NCc3ccncc3)ccc21 [MOTESANIB]
0.469 µM: DU-145
not listed: SIMA
> 2 µM: all other assays above

CCN(CC)CCCCNc1ncc2cc(-c3cc(OC)cc(OC)c3)c(NC(=O)NC(C)(C)C)nc2n1 [PD-173074]
1.58 µM: DU-145
not listed: SIMA
> 2 µM: all other assays above

CC(C)CCN1c2nc(Nc3cc(F)c(O)c(F)c3)ncc2N(C)C(=O)C1C (stereo not given)
4.72 µM: MDA-MB-231
4.94 µM: CAL-39
2.66 µM: Ca9-22
2.11 µM: DU-145
4.36 µM: MIA PaCa-2
3.09 µM: GMS-10
4.87 µM: CAL-51
2.68 µM: NCI-H1048
0.882 µM: CAL-62
not listed: SIMA
> 5 µM: all other assays above

Cc1cn(-c2cc(NC(=O)c3ccc(C)c(Nc4nccc(-c5cccnc5)n4)c3)cc(C(F)(F)F)c2)cn1 [NILOTINIB]
not listed: SIMA
> 2 µM: all other assays above

Nc1cccc2c1CN(C1CCC(=O)NC1=O)C2=O (stereo not given) [LENALIDOMIDE]
not listed: SIMA
> 5 µM: all other assays above
